Assay [1] deals with perceived sweetness (sweet sensitive panelists). Description: Sweetness detection threshold of trilobatin in yoghurt (Example 8). The format is in vivo, human. To be noted: for Sweetness of 500 ppm trilobatin sample: plain nonfat yoghurt. The procedure: Trilobatin was tested by 6 sweet sensitive panelists in plain nonfat yoghurt.
Yoghurt samples were 500 ppm trilobatin, 1% sucrose, and 2% sucrose. Panelists compared the 500 ppm trilobatin sample to each sucrose sample and compared the sweetness, the results are indicated in the table below.

Assay [2] relates to perceived sweetness (one panelist trained for sweetness detection). Description: Paired comparison of 20-100 ppm trilobatin versus 0-1% sucrose (Example 1a). The format is in vivo, human. The procedure:
Trilobatin (20 ppm, 60 ppm, 100 ppm) in water samples were evaluated for isointensity to sucrose solutions in a concentration of 0, 0.5 and 1% sucrose using a paired comparison method. Samples were paired and tasted left to right with rinsing (water) in between, by one panelist trained for sweetness detection.
The trilobatin samples were compared to either 0%, 0.5%, or 1% sucrose solutions.

Molecules are shown by their SMILES.

As for `O=C(CCc1ccc(O)cc1)c1c(O)cc(O[C@@H]2O[C@H](CO)[C@@H](O)[C@H](O)[C@H]2O)cc1O` [trilobatin, 1-[4-(beta-D-glucopyranosyloxy)-2,6-dihydroxyphenyl]-3-(4-hydroxyphenyl)-1-propanone], the “own sweetness equivalent to sucrose” value in assay [1] (500 ppm trilobatin in yoghurt) worked out at 1 % sucrose. Further, the “Sweetness of 500 ppm trilobatin sample” value in assay [1] (vs 1% sucrose yoghurt sample) is recorded as “slightly less sweet/similarly sweet”; in assay [1] (vs 2% sucrose yoghurt sample), “less sweet”. The “Taste of trilobatin samples compared to sucrose” value in assay [2] (20 ppm trilobatin in water vs 0% sucrose) is reported as “isosweet”; in assay [2] (20 ppm trilobatin in water vs 0.5% sucrose) it was “notably less sweet”; in assay [2] (60 ppm trilobatin in water vs 0% sucrose), “weakly sweeter”; in assay [2] (60 ppm trilobatin in water vs 0.5% sucrose) it was “less sweet”; in assay [2] (100 ppm trilobatin in water vs 0% sucrose), “sweeter”; in assay [2] (100 ppm trilobatin in water vs 0.5% sucrose) it was “isosweet”. For the same molecule, the “Taste of trilobatin samples compared to sucrose” value in assay [2] (100 ppm trilobatin in water vs 1% sucrose) is recorded as “less sweet”. The “isointensity to sucrose, by interpolation” value in assay [2] (60 ppm trilobatin in water) worked out at 0.25 % sucrose.

These data come from patent publication US11980209B2, “Consumables” (GIVAUDAN SA, priority 2007, dated 2024).
